Experimental data from patent publication US20130072505A1, “6,9-Disubstituted Purine Derivatives and Their Use for Treating Skin” (priority 2006, published 2013).
Marks after values point to notes of the source that are not given here.

System: photodamaged facial skin
Test: clinical study of topical treatment of photodamaged facial skin, 12 weeks
Type: in vivo, human
Conditions: for investigator's assessment of overall improvement in skin condition (relative to baseline): 6-point scale (1=excellent improvement to 5=no improvement; 6=worse); for investigator's assessment of overall skin condition: 10 point scale (0=None; 1-3=Mild; 4-6=Moderate; 7-9=Severe); for Mean Improvement from Baseline: TEWL / Mean Improvement from Baseline: Coarse Wrinkles / Mean Improvement from Baseline: Fine Wrinkles / Mean Improvement from Baseline: Mottled Hyperpigmentation / Mean Improvement from Baseline: Overall Skin Condition / Mean Improvement from Baseline: Roughness / Subjects Reporting Improvement from Baseline: Blotchiness / Subjects Reporting Improvement from Baseline: Color / Subjects Reporting Improvement from Baseline: Fine Wrinkles / Subjects Reporting Improvement from Baseline: Texture: 0.10% topical; for Mean Improvement from Baseline: Coarse Wrinkles / Mean Improvement from Baseline: Fine Wrinkles / Mean Improvement from Baseline: Mottled Hyperpigmentation / Mean Improvement from Baseline: Overall Skin Condition / Mean Improvement from Baseline: Roughness: expert evaluation; for Skin Moisture / TEWL: 0.10% in MillCreek Lotion twice daily
Description: A clinical study has been conducted to determine the cosmetic efficacy and subjects' tolerance of topical 6-furfurylamino-9-(2-tetrahydropyranyl)purine (0.10%) applied twice daily for 12 weeks to improve the clinical signs and symptoms of photodamaged facial skin. Forty female volunteer subjects age 40 to 65 with mild to moderate signs of photo damaged facial skin were enroled in the study. Thirty four subjects competed the study; the mean age of subjects competing the study was about 54 years. Subjects were instructed to apply the test product to the entire facial skin twice daily (i.e., early morning and approximately 1 hour before bedtime) for 12 consecutive weeks. Subjects were also instructed that, other than sunscreens or mild cleansers and use of color cosmetics, no other topical skin care products or medications were to be used on the face during the study. The test product comprised 0.1 percent 6-furfurylamino-9-(2-tetrahydropyranyl)purine in MillCreek Lotion as vehicle.
Subjects were assessed at weeks 2, 4, 8, and 12. The treated facial skin was evaluated for clinical signs of skin aging (e.g., coarse and fine wrinkles, roughness, mottled hyperpigmentation) at study entry (baseline) as well as 2, 4, 8 and 12 weeks. The subjects' self-assessment of improvement over baseline (wrinkles, texture, blotchiness, color, and overall improvement) were also obtained. In addition, transepidermal water loss (TEWL) and skin moisture measurements were taken on the cheeks of all subjects.
TEWL refers to the amount of water vapor loss through the stratum corneum. […] TEWL measurements were taken using a TEWL meter (Courage & Khazaka, Köln, Germany) having composed of a probe (containing humidity and temperature sensors) connected to a central processing unit. For each subject, the probe was placed in the center of both cheeks and measurements taken in duplicate.
An indirect measurement of the skin's moisture content was made by measuring changes in the skin's electrical properties. Impedance based capacitance measurements were taken on the skin using a NOVA DPM 9003® (NOVA Technologies, Gloucester, Mass., USA). The instrument performs measurements at varying preselected frequencies (up to 1 MHz) of the applied alternating current. A value directly related to capacitance is determined in arbitrary units; a higher value indicates a greater capacitance which indicates an increased level of moisture at the test site. Measurements in triplicate were taken in the center of both cheeks for each test subject.
At the baseline (Day 0) visit, an investigator evaluated each subject's face for the presence of fine wrinkles, coarse wrinkles, roughness, mottled hyperpigmentation, and other parameters using a five-point scale (0=None; 1=Minimal; 2=Mild; 3=Moderate; and 4=Severe). The overall severity of skin photodamage (wrinkles, roughness and mottled hyperpigmentation) was evaluated using a 10 point scale (0=None; 1-3=Mild; 4-6=Moderate; and 7-9=Severe); subjects with baseline severity scores greater than 6 were excluded from the study.
On each subsequent visit, the investigator evaluated overall improvement compared to baseline using a 6-point scale (1=excellent improvement; 2=marked improvement; 3=moderate improvement; 4=slight improvement; 5=no improvement; and 6=worse).
At each subsequent visit, the subjects were asked to complete a self-assessment questionnaire to assess the improvement from baseline for skin texture, skin color, blotchiness (i.e., brown spots), fine wrinkles; and overall improvement using a five-point scale (1=much improved; 2=somewhat improved; 3=no change; 4=somewhat worse; and 5=much worse).
This Example compares the clinical data for topically applied 6-furfurylamino-9-(2-tetrahydropyranyl)purine (0.10%) taken from Example 23 with similar clinical data generated for topically applied kinetin (0.1%) from an earlier study. […]

[1] = Eight Week Data, self assessment
[2] = Twelve Week Data, self assessment
[3] = Week 2, investigator, five-point scale 0=None to 4=Severe
[4] = Week 2, subjects' self assessment, five-point scale 1=much improved to 5=much worse
[5] = Week 4, investigator, five-point scale 0=None to 4=Severe
[6] = Week 4, subjects' self assessment, five-point scale 1=much improved to 5=much worse
[7] = Week 8, investigator, five-point scale 0=None to 4=Severe
[8] = Week 8, subjects' self assessment, five-point scale 1=much improved to 5=much worse
[9] = Week 12, investigator, five-point scale 0=None to 4=Severe
[10] = Week 12, subjects' self assessment, five-point scale 1=much improved to 5=much worse

Compound: c1coc(CNc2ncnc3c2ncn3C2CCCCO2)c1 (centres unmarked) [6-furfurylamino-9-(2-tetrahydropyranyl)purine]
- overall skin condition, change relative to baseline (2 weeks): −1.22%
- investigator's assessment of overall improvement in skin condition (relative to baseline) (2 weeks): 4.95
- investigator's assessment of overall skin condition (2 weeks): 4.05
- overall improvement, change relative to 2 week data (4 weeks): −10.61%
- overall skin condition, change relative to baseline (4 weeks): −15.23%
- investigator's assessment of overall improvement in skin condition (relative to baseline) (4 weeks): 4.44
- investigator's assessment of overall skin condition (4 weeks): 3.56
- overall improvement, change relative to 2 week data (8 weeks): −16.67%
- overall skin condition, change relative to baseline (8 weeks): −24.32%
- investigator's assessment of overall improvement in skin condition (relative to baseline) (8 weeks): 4.11
- investigator's assessment of overall skin condition (8 weeks): 3.20
- overall improvement, change relative to 2 week data (12 weeks): −17.16%
- overall skin condition, change relative to baseline (12 weeks): −27.97%
- investigator's assessment of overall improvement in skin condition (relative to baseline) (12 weeks): 4.12
- investigator's assessment of overall skin condition (12 weeks): 3.03
- Mean Improvement from Baseline: TEWL (Eight Week Data): 1%
- Mean Improvement from Baseline: Coarse Wrinkles (Eight Week Data): 7%
- Mean Improvement from Baseline: Fine Wrinkles (Eight Week Data): 22%*
- Mean Improvement from Baseline: Mottled Hyperpigmentation (Eight Week Data): 31%*
- Mean Improvement from Baseline: Overall Skin Condition (Eight Week Data): 24%*
- Mean Improvement from Baseline: Roughness (Eight Week Data): 86%*
- Subjects Reporting Improvement from Baseline: Blotchiness [1]: 60%
- Subjects Reporting Improvement from Baseline: Color [1]: 66%
- Subjects Reporting Improvement from Baseline: Fine Wrinkles [1]: 83%
- Subjects Reporting Improvement from Baseline: Texture [1]: 83%
- Mean Improvement from Baseline: TEWL (Twelve Week Data): 28%
- Mean Improvement from Baseline: Coarse Wrinkles (Twelve Week Data): 14%*
- Mean Improvement from Baseline: Fine Wrinkles (Twelve Week Data): 28%*
- Mean Improvement from Baseline: Mottled Hyperpigmentation (Twelve Week Data): 41%*
- Mean Improvement from Baseline: Overall Skin Condition (Twelve Week Data): 28%*
- Mean Improvement from Baseline: Roughness (Twelve Week Data): 84%*
- Subjects Reporting Improvement from Baseline: Blotchiness [2]: 63%
- Subjects Reporting Improvement from Baseline: Color [2]: 68%
- Subjects Reporting Improvement from Baseline: Fine Wrinkles [2]: 88%
- Subjects Reporting Improvement from Baseline: Texture [2]: 88%
- Acne Change Relative to Baseline (Week 2): −4.00%
- Coarse Wrinkles Change Relative to Baseline (Week 2): 4.44%
- Erythema Change Relative to Baseline (Week 2): −33.33%
- Mottled Hyperpigmentation Change Relative to Baseline (Week 2): −1.45%
- Roughness Change Relative to Baseline (Week 2): −37.31%
- Skin Irritation Change Relative to Baseline (Week 2): 0
- Skin Moisture Change Relative to Baseline (Week 2): 6.22%
- TEWL Change Relative to Baseline (Week 2): −1.98%
- Skin Moisture (Week 2): 125.37* arbitrary units
- TEWL (Week 2): 12.89 g/m^2/hr
- Fine Wrinkles Change Relative to Baseline (Week 2, investigator): −1.28%
- Acne [3]: 0.60
- Coarse Wrinkles [3]: 2.35
- Erythema [3]: 0.40^††
- Fine Wrinkles [3]: 2.18
- Mottled Hyperpigmentation [3]: 1.70
- Roughness [3]: 1.05*
- Skin Irritation [3]: 0
- Blotchiness/Brown Spots [4]: 2.70
- Fine Wrinkles [4]: 2.62
- Overall Improvement [4]: 2.36
- Skin Color [4]: 2.74
- Skin Texture [4]: 2.21
- Acne Change Relative to Baseline (Week 4): −13.64%
- Coarse Wrinkles Change Relative to Baseline (Week 4): −4.76%
- Erythema Change Relative to Baseline (Week 4): −47.62%
- Mottled Hyperpigmentation Change Relative to Baseline (Week 4): −15.63%
- Roughness Change Relative to Baseline (Week 4): −63.79%
- Skin Irritation Change Relative to Baseline (Week 4): 0
- Skin Moisture Change Relative to Baseline (Week 4): 20.96%
- TEWL Change Relative to Baseline (Week 4): −9.62%
- Skin Moisture (Week 4): 141.30* arbitrary units
- TEWL (Week 4): 11.70* g/m^2/hr
- Fine Wrinkles Change Relative to Baseline (Week 4, investigator): −11.25%
- Acne [5]: 0.53
- Coarse Wrinkles [5]: 2.22
- Erythema [5]: 0.31*
- Fine Wrinkles [5]: 1.97*
- Mottled Hyperpigmentation [5]: 1.50*
- Roughness [5]: 0.58*
- Skin Irritation [5]: 0
- Blotchiness/Brown Spots Change Relative to 2 Week Data (Week 4, self assessment): −6.19%
- Fine Wrinkles Change Relative to 2 Week Data (Week 4, self assessment): −18.68%
- Skin Color Change Relative to 2 Week Data (Week 4, self assessment): −5.32%
- Skin Texture Change Relative to 2 Week Data (Week 4, self assessment): −8.97%
- overall improvement, change relative to 2 week data (Week 4, self assessment): −6.17%
- Blotchiness/Brown Spots [6]: 2.58
- Fine Wrinkles [6]: 2.11*
- Overall Improvement [6]: 2.14
- Skin Color [6]: 2.50*
- Skin Texture [6]: 2.03*
- Acne Change Relative to Baseline (Week 8): −9.52%
- Coarse Wrinkles Change Relative to Baseline (Week 8): −7.23%
- Erythema Change Relative to Baseline (Week 8): −66.67%
- Mottled Hyperpigmentation Change Relative to Baseline (Week 8): −30.65%
- Roughness Change Relative to Baseline (Week 8): −85.71%
- Skin Irritation Change Relative to Baseline (Week 8): 0
- Skin Moisture Change Relative to Baseline (Week 8): 35.10%
- TEWL Change Relative to Baseline (Week 8): 0.11%
- Skin Moisture (Week 8): 158.04* arbitrary units
- TEWL (Week 8): 13.08 g/m^2/hr
- Fine Wrinkles Change Relative to Baseline (Week 8, investigator): −21.79%
- Acne [7]: 0.53
- Coarse Wrinkles [7]: 2.20
- Erythema [7]: 0.20*
- Fine Wrinkles [7]: 1.74*
- Mottled Hyperpigmentation [7]: 1.23*
- Roughness [7]: 0.23*
- Skin Irritation [7]: 0
- Blotchiness/Brown Spots Change Relative to 2 Week Data (Week 8, self assessment): −18.95%
- Fine Wrinkles Change Relative to 2 Week Data (Week 8, self assessment): −23.60%
- Skin Color Change Relative to 2 Week Data (Week 8, self assessment): −18.28%
- Skin Texture Change Relative to 2 Week Data (Week 8, self assessment): −15.58%
- overall improvement, change relative to 2 week data (Week 8, self assessment): −16.25%
- Blotchiness/Brown Spots [8]: 2.26*
- Fine Wrinkles [8]: 2.00*
- Overall Improvement [8]: 1.97*
- Skin Color [8]: 2.23*
- Skin Texture [8]: 1.91*
- Acne Change Relative to Baseline (Week 12): −45.00%
- Coarse Wrinkles Change Relative to Baseline (Week 12): −13.75%
- Erythema Change Relative to Baseline (Week 12): −66.67%%
- Mottled Hyperpigmentation Change Relative to Baseline (Week 12): −40.68%
- Roughness Change Relative to Baseline (Week 12): −83.64%
- Skin Irritation Change Relative to Baseline (Week 12): 0
- Skin Moisture Change Relative to Baseline (Week 12): 41.21%
- TEWL Change Relative to Baseline (Week 12): −27.79%
- Skin Moisture (Week 12): 165.42* arbitrary units
- TEWL (Week 12): 9.54* g/m^2/hr
- Fine Wrinkles Change Relative to Baseline (Week 12, investigator): −27.63%
- Acne [9]: 0.32*
- Coarse Wrinkles [9]: 2.03*
- Erythema [9]: 0.21*
- Fine Wrinkles [9]: 1.62*
- Mottled Hyperpigmentation [9]: 1.03*
- Roughness [9]: 0.26*
- Skin Irritation [9]: 0
- Blotchiness/Brown Spots Change Relative to 2 Week Data (Week 12, self assessment): −23.16%
- Fine Wrinkles Change Relative to 2 Week Data (Week 12, self assessment): −28.09%
- Skin Color Change Relative to 2 Week Data (Week 12, self assessment): −22.58%
- Skin Texture Change Relative to 2 Week Data (Week 12, self assessment): −23.38%
- overall improvement, change relative to 2 week data (Week 12, self assessment): −18.75%
- Blotchiness/Brown Spots [10]: 2.15*
- Fine Wrinkles [10]: 1.88*
- Overall Improvement [10]: 1.91*
- Skin Color [10]: 2.12*
- Skin Texture [10]: 1.74*
- Skin irritation or other adverse effects (over the 12 week study period): not observed
